Here are results for two molecules from patent US20070244076A1, “Site and Rate Selective Prodrug Formulations of D609 with Antioxidant and Anticancer Activity” (priority 2003, published 2007).

The structures appear in SMILES notation. Marks after values point to notes of the source that are not given here.

For data set [1], the system named is Porcine liver esterase (PLE). Briefly: Esterase-catalyzed hydrolysis of D609 prodrugs. In kind it is in vitro ADME. How it is done: FIG. 18A, FIG. 18B, FIG. 18C: Esterase-catalyzed hydrolysis of D609 prodrugs. Prodrugs (300 μM in 15% DMSO/PBS, pH 7.4), 1 (FIG. 18A), 2 (FIG. 18B) and 3 (FIG. 18C), were incubated at 37° C. in the presence of 0.1 unit/ml PLE. […] The data are presented as the mean±SEM of three independent assays.
To determine the hydrolytic property of D609 prodrugs 1, 2, and 3 (300 μM in 15% DMSO/PBS, pH7.4), these prodrugs were incubated with 0.1 unit/ml PLE at 37° C. After various times during incubation, the rate of hydrolysis of these D609 prodrugs was monitored by HPLC analysis. […] The concentration of D609 (μM) was calculated based on a linear D609-DTNB standard curve. The pseudo-first-order plots for the hydrolysis of these prodrugs were constructed from the logarithm of remaining ester versus time (FIG. 18). The end points of the reaction (150 min) were defined as when the hydrolysis of these prodrugs was over 99% complete and the release of D609 reached plateau. The pseudo-first-order rate constant (Kobs) and T1/2 (=0.693/Kobs) were calculated based on the slope of the linear portion of the curve for each of these prodrugs and are presented in Table 1 (Gilmer et al., 2002).

Data set [2] deals with ceramide levels in U937 cells. Briefly: Ceramide profile in U937 cells by ESI/MS/MS. To be noted: for increase in the level of total ceramide compared to vehicle-treated cells: 177 μM; for C14-Cer / C16-Cer / C18-Cer / C20-Cer / C24-Cer / C24:1-Cer / Total-Cer / dhC16-Cer: 177 µM, 4 h. Type of data set: cell-based, Human. How it is done: ESI/MS/MS analysis of ceramide was performed on a Thermo Finnigan TSQ 7000 triple quadruple mass spectrometer, operating in a multiple reaction monitoring (MRM) positive ionization mode. U937 cells (4×10^6/sample) were washed twice with PBS after they were harvested from cultures. […] An aliquot of the lipid extracts was taken for inorganic phosphate determination and the remainder was evaporated to dryness and reconstituted in 100 μL of methanol. The reconstituted samples were injected on the Surveyor/TSQ 7000 LC/MS system and gradient was eluted from the BDS Hypersil C8, 150×3.2 mm, 3 μm particle size column, with 1.0 mM methanolic ammonium formate/2 mM aqueous ammonium formate mobile phase system. Peaks for the target analytes and internal standards were collected and processed using the Xcalibur software system. Various species of ceramide were quantified using N-palmitoyl-D-erythro-sphingosine, C13 base (C13 ceramide) and N-heptadecanoyl-D-erythro-sphingosine, C18 base (C18 ceramide) as internal calibration standards. Calibration curves were constructed by plotting peak area ratios of synthetic standards corresponding to each target analyte with respect to the appropriate internal standard. The target analyte peak areas from the samples were similarly normalized to their respective internal standard then compared with the calibration curves using a linear regression model. The results are expressed as pmole ceramide/nmole lipid phosphate (Pi).

For data set [3] the following is noted: rat, plasma.
Description: At various times of the incubation, the hydrolysis of prodrug 2 was monitored by HPLC analysis, and the release of D609 was determined by measuring the colorimetric reaction of D609 with DTNB (3 mM). The data are presented as mean±SE of three independent assays.
After incubation at 37° C., aliquots (100 μl) of the plasma were removed at various times and immediately mixed with an equal volume of DTNB in acetonitrile (3 mM DTNB). Acetonitrile was used to quickly inactivate plasma esterases and to precipitate plasma proteins. After removal of the precipitated plasma proteins by centrifugation, the concentrations of the D609 prodrug and D609 in the clear plasma supernatants were determined by HPLC and DTNB assays, respectively, as described above.
In data set [4] the test system is BALB/c mice. The experiment in a line: Protection of mice from IR-induced lethality. Type of data set: in vivo. To be noted: 50 mg/kg iv 10 min prior to 6.5 or 8.5 Gy total body IR; 30-day observation. How it is done:
BALB/c mice were exposed to 6.5 or 8.5 Gy total body IR 10 minutes after they received a single dose (50 mg/kg) of iv injection of D609 or vehicle (saline) through the tail vein. The death of these mice was recorded during a 30-day observation period after IR.
Moreover, when D609 (50 mg/kg, iv) was administered to mice 10 min prior to total body

Data set [5] relates to lymphocytes. Briefly: IR-induced oxidative events in lymphocytes. To be noted: pre-incubation of lymphocytes. Type of data set: cell-based.
Data set [6] deals with various tumor cells. The experiment in a line: IR-induced apoptosis of tumor cells. Type of data set: cell-based.
The target of data set [7] is phospholipase C (Type XI from B. cereus) (Bacillus cereus, UniProt P09598). Type of data set: biochemical. To be noted: 2 hrs at 37° C., pNPP 40 mM. Here is the method:
(§1) In this study, p-nitrophenyl-phosphorylcholine (pNPP, 40 mM) was incubated with 2 U/ml phospholipase C (Type XI from B. cereus) in the presence or absence of various concentrations of inhibitors for 2 hrs at 37° C. The amount of the cleaved substrate pNPP was quantified by determination of the optical density at 410 nm using an ELISA reader. The results are expressed as percent of vehicle control and presented as means±SEM (n=3) (FIG. 9A). NBD-C6-ceramide and PC were incubated with U937 cell lysates containing 50 μg protein in the presence or absence of various concentrations of inhibitors for 30 min at 30° C. The formation of NBD-C6-sphingomyelin as analyzed by TLC and quantified by determination of the fluorescent intensity of NBD-C6-sphingomyelin using a phosphorimager. The results are expressed as percent of vehicle control (FIG. 9B). U937 cells were incubated with different concentrations of inhibitors for 48 hours.

Data set [8] relates to sphingomyelin synthase (SMS). The experiment in a line: SMS activity in U937 cell lysates with inhibitor added (cell lysate-based in vitro assay). Type of data set: biochemical, Human. To be noted: 30 min at 30° C. Here is the method: as §1
For data set [9], the system named is Mouse splenic lymphocytes. Briefly: Mitogen-stimulated lymphocyte proliferation, 3H-thymidine incorporation. Type of data set: cell-based. To be noted: 188 μM=50 μg/ml. Here is the method: (§2) Studies were conducted to determine whether D609 enhances mouse splenic lymphocyte mitogenic responses and IFNγ production. Mouse splenic lymphocytes at 2.5×10^6/ml were stimulated with LPS or ConA in the presence or absence of D609. The cell proliferation was measure by 3H-thymidine incorporation after the cells were cultured with LPS (FIG. 8A) or with ConA (FIG. 8B). […] In addition, the supernatants of ConA-stimulated lymphocyte cultures were harvested at various times and measured for IFNγ production by ELISA (FIG. 8C).
For orientation: Uptake of a labelled nucleoside into DNA is a usual measure of proliferation.

Data set [10] concerns Mouse splenic lymphocytes. The experiment in a line: IFNγ production of ConA-stimulated lymphocytes, ELISA. Type of data set: cell-based. How it is done: as §2
The subject of data set [11] is A20 lymphoma. As to conditions: 50 mg/kg i.v., alone or with 6.0 Gy irradiation. How it is done:
A20 lymphoma was induced in normal BALB/c male mice by the tail vein injection of 5×10^5 cultured A20 cells. Two days later, the mice were assigned to groups of 10 mice each and received i.v. 1) saline, 2) 50 mg/kg D609, 3) saline plus 6.0 Gy irradiation or 4) D609 plus irradiation. Total body irradiation was given 10 min after D609 injection. Survival of each mouse was then followed by daily monitoring and weighing (5×/week).

[12] abbreviates: 300 μM, 0.1 unit/ml PLE, 37° C., pH 7.4.

Sequence of phospholipase C (Type XI from B. cereus) (P09598 39-283 limits assumed): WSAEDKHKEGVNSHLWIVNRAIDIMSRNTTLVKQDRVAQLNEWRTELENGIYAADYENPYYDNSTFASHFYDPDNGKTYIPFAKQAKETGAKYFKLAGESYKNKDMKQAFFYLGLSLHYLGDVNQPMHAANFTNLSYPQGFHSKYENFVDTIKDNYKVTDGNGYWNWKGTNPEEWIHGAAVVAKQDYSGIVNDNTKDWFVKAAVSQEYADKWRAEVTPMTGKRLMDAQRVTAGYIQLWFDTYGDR

On to `CCCC(=O)OCSC(=S)OC1CC2CC1C1CCCC21` (stereo not drawn) [Prodrug 2, S-methyleneoxybutyryl D609], for which, in data set [1] (setting [12]), the T1/2 was 10.61 min and the kobs was 0.06532 min⁻¹. Besides, the “% D609 (molar recovery of D609)” value in [1] (complete hydrolysis by esterase) was found to be 93%. For the same molecule, in data set [2], the “increase in the level of total ceramide compared to vehicle-treated cells” value was determined as 1.84 fold, the C14-Cer was 0.054^a,b pmole ceramide/nmole lipid Pi, the C16-Cer is reported as 1.713^a pmole ceramide/nmole lipid Pi and the C18-Cer is 0.262^a pmole ceramide/nmole lipid Pi. In data set [2], the C20-Cer is on record as 0.031^a pmole ceramide/nmole lipid Pi, the C24-Cer is recorded as 0.482^a pmole ceramide/nmole lipid Pi, the “C24:1-Cer” value is 0.863^a,b pmole ceramide/nmole lipid Pi and the Total-Cer was 4.358^a,b pmole ceramide/nmole lipid Pi. Moreover, the dhC16-Cer in [2] is 0.951^a,b pmole ceramide/nmole lipid Pi. Moreover, the T1/2 in data set [3] is 0.126 min.
For `S=C([S-])OC1CC2CC1C1CCCC21.[K+]` (stereo not drawn) [Prodrug D609, Tricyclodecan-9-yl-xanthogenate], the “protection from IR-induced lethality” value in data set [4] is reported as “protected the mice from IR-induced lethality”. The “IR-induced events (ROS production, decrease in GSH, oxidative damage to proteins and lipids, NF-κB activation)” value in data set [5] is recorded as “significant diminution”. In addition, the “protection of tumor cells from IR-induced apoptosis” value in [6] is “failed to protect them from IR-induced apoptosis”. Also, in [7], the “inhibition of PC-PLC activity” value is recorded as “dose-dependently inhibited”. The “inhibition of SMS activity” value in data set [8] is reported as “inhibited the SMS activity in a dose-dependent manner”. In addition, the “mitogenic responses to LPS or ConA” value in [9] is given as “enhanced their mitogenic responses”. The “production of interferon-γ (IFNγ)” value in [10] is on record as “significantly augmented”. The therapeutic response result in data set [11] is given as “no significant therapeutic response”. For the same molecule, in data set [2], the “increase in the level of total ceramide compared to vehicle-treated cells” value is listed as “about 1.61 fold”, the C14-Cer is listed as 0.038^a pmole ceramide/nmole lipid Pi, the C16-Cer is recorded as 1.612^a pmole ceramide/nmole lipid Pi and the C18-Cer is given as 0.213^a pmole ceramide/nmole lipid Pi. Besides, in data set [2], the C20-Cer is on record as 0.036^a pmole ceramide/nmole lipid Pi, the C24-Cer is given as 0.416 pmole ceramide/nmole lipid Pi, the “C24:1-Cer” value is 0.669^a pmole ceramide/nmole lipid Pi and the Total-Cer is reported as 3.816^a pmole ceramide/nmole lipid Pi. Moreover, the dhC16-Cer in data set [2] is on record as 0.832^a pmole ceramide/nmole lipid Pi.
